According to patent US8148373B2, “Compounds” (AstraZeneca AB, priority 2008, dated 2012):
Counter-ions that a name gives are not always drawn.

What was measured:
[1] = biological target: T1, human muscarinic acetylcholine M3 receptor (M3-ACh) (Homo sapiens, UniProt P20309); assay: Muscarinic 3 Receptor Binding Assay ([3H]NMS competition, SPA); settings: [3H]NMS 0.1 nM, CHO-K1 cell membranes, 16 hours at room temperature; read-out: M3 pIC50 (converted)
T1 construct: expressed in transfected cells; host or cells: CHO-K1 (Chinese Hamster Ovary) cell membranes
T1 sequence (P20309 whole entry): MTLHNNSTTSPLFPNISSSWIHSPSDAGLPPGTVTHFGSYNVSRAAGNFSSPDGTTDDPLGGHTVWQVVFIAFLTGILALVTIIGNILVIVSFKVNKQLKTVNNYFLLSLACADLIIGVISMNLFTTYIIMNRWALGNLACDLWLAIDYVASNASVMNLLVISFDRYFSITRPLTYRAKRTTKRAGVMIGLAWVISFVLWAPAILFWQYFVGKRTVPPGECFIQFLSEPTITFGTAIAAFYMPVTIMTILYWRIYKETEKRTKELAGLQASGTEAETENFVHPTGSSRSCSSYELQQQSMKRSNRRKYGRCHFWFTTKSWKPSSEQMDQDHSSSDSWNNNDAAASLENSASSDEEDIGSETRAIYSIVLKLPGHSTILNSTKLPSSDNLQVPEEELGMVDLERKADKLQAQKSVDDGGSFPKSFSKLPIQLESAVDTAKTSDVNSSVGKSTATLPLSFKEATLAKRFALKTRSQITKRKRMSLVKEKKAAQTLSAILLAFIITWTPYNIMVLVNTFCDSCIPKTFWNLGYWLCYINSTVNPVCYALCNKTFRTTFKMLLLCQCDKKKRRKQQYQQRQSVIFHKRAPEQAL
Outline: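 Competition SPA binding of 0.1 nM [3H]NMS (quarter Kd) to membranes from CHO-K1 cells expressing human M3, in 20 mM HEPES pH 7.4, 5 mM MgCl2, 1% DMSO. Incubated 16 h at room temperature; non-specific binding with 1 µM atropine. pIC50 from 50% reduction of specific binding.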

[2] = biological target: T2, Adrenergic β2 (H292 cells) (Homo sapiens, UniProt P07550); assay: Assay for Adrenergic β2 Mediated cAMP Production (concentration response, AlphaScreen cAMP detection); type: cell-based; settings: for EC50: cAMP production, 60 minutes at room temperature, 300 μM rolipram, read-out: β2 pEC50 (converted); for β2 Intrinsic activity: fraction relative to the maximum activity determined for formoterol
T2 construct: endogenous in cells; host or cells: H292 cells
T2 sequence (P07550 whole entry): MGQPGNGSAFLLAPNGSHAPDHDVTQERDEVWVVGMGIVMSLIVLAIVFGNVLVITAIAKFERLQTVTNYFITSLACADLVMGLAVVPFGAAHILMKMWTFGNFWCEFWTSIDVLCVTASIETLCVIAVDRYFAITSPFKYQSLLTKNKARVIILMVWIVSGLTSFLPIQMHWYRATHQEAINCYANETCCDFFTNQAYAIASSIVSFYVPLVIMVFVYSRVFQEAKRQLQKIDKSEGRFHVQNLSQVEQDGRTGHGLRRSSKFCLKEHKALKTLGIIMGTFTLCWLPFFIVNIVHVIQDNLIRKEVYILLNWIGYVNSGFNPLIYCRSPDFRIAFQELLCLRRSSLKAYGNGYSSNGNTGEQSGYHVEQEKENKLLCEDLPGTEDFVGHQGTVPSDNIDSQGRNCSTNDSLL
Outline: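 H292 cells plated overnight, pre-treated with rolipram (300 μM final) 10 min, then compound 60 min at room temperature in HBSS/10 mM HEPES pH7.4/5 mM glucose, 1% DMSO. Lysate cAMP read by AlphaScreen against a cAMP standard curve; 4-parameter fit gives pEC50 and intrinsic activity as fraction of formoterol maximum.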

| SMILES | IC50 [1] | EC50 [2] | β2 Intrinsic activity [2] |
| --- | --- | --- | --- |
| CC(C)c1nc(C(=O)N2CCOC3(CCN(CCOc4ccc(CNC[C@H](O)c5ccc(O)c6[nH]c(=O)sc56)cc4)CC3)C2)cs1 [Example 108, (R)-4-Hydroxy-7-(1-hydroxy-2-(4-(2-(4-(2-isopropylthiazole-4-carbonyl)-1-oxa-4,9-diazaspiro[5.5]undecan-9-yl)ethoxy)benzylamino)ethyl)benzo[d]thiazol-2(3H)-one formate] | 3.98 nM | 126 nM | 0.9 |
| O=C(c1csc(-c2ccccc2)n1)N1CCOC2(CCN(CCOc3ccc(CNC[C@H](O)c4ccc(O)c5[nH]c(=O)sc45)cc3)CC2)C1 [Example 112, (R)-4-Hydroxy-7-(1-hydroxy-2-(4-(2-(4-(2-phenylthiazole-4-carbonyl)-1-oxa-4,9-diazaspiro[5.5]undecan-9-yl)ethoxy)benzylamino)ethyl)benzo[d]thiazol-2(3H)-one ditrifluoroacetate] | 501 nM | 126 nM | 0.9 |
| CC(C)c1ncc(C(=O)N2CCOC3(CCN(Cc4cc(F)cc(CCNC[C@H](O)c5ccc(O)c6[nH]c(=O)sc56)c4)CC3)C2)s1 [Example 55, (R)-7-(2-(3-Fluoro-5-((4-(2-isopropylthiazole-5-carbonyl)-1-oxa-4,9-diazaspiro[5.5]undecan-9-yl)methyl)phenethylamino)-1-hydroxyethyl)-4-hydroxybenzo[d]thiazol-2(3H)-one ditrifluoroacetate] | 63.1 nM | 6.31 nM | 1 |
| Cc1nc(C(=O)N2CCOC3(CCN(Cc4ccc(CCNC[C@H](O)c5ccc(O)c6[nH]c(=O)ccc56)cc4)CC3)C2)cs1 [Example 17, (R)-8-Hydroxy-5-(1-hydroxy-2-(4-((4-(2-methylthiazole-4-carbonyl)-1-oxa-4,9-diazaspiro[5.5]undecan-9-yl)methyl)phenethylamino)ethyl)quinolin-2(1H)-one ditrifluoroacetate] | 50.1 nM | 50.1 nM | 0.5 |
| CC(C)c1nc(C(=O)N2CCOC3(CCN(Cc4ccc(Cl)c(CCNC[C@H](O)c5ccc(O)c6[nH]c(=O)sc56)c4)CC3)C2)cs1 [Example 75, (R)-7-(2-(2-Chloro-5-((4-(2-isopropylthiazole-4-carbonyl)-1-oxa-4,9-diazaspiro[5.5]undecan-9-yl)methyl)phenethylamino)-1-hydroxyethyl)-4-hydroxybenzo[d]thiazol-2(3H)-one ditrifluoroacetate] | 2 nM | 25.1 nM | 0.8 |
| CC(C)c1csc(C(=O)N2CCOC3(CCN(Cc4cccc(CCNC[C@H](O)c5ccc(O)c6[nH]c(=O)sc56)c4)CC3)C2)n1 [Example 66, (R)-4-Hydroxy-7-(1-hydroxy-2-(3-((4-(4-isopropylthiazole-2-carbonyl)-1-oxa-4,9-diazaspiro[5.5]undecan-9-yl)methyl)phenethylamino)ethyl)benzo[d]thiazol-2(3H)-one ditrifluoroacetate] | 0.794 nM | 15.8 nM | 0.9 |
| Cc1nc(C(=O)N2CCOC3(CCN(Cc4cc(F)cc(CCNC[C@H](O)c5ccc(O)c6[nH]c(=O)sc56)c4)CC3)C2)cs1 [Example 19, (R)-7-(2-(3-Fluoro-5-((4-(2-methylthiazole-4-carbonyl)-1-oxa-4,9-diazaspiro[5.5]undecan-9-yl)methyl)phenethylamino)-1-hydroxyethyl)-4-hydroxybenzo[d]thiazol-2(3H)-one ditrifluoroacetate] | 1.58 nM | 3.16 nM | 0.9 |
| CCc1cc(C(=O)N2CCOC3(CCN(Cc4cc(F)cc(CCNC[C@H](O)c5ccc(O)c6[nH]c(=O)sc56)c4)CC3)C2)cs1 [Example 93, (R)-7-(2-(3-((4-(5-Ethylthiophene-3-carbonyl)-1-oxa-4,9-diazaspiro[5.5]undecan-9-yl)methyl)-5-fluorophenethylamino)-1-hydroxyethyl)-4-hydroxybenzo[d]thiazol-2(3H)-one ditrifluoroacetate] | 2.51 nM | 2.51 nM | 0.8 |
| Cc1ccc(C(=O)N2CCOC3(CCN(CCOc4ccc(CNC[C@H](O)c5ccc(O)c6[nH]c(=O)sc56)cc4)CC3)C2)s1 [Example 110, (R)-4-Hydroxy-7-(1-hydroxy-2-(4-(2-(4-(5-methylthiophene-2-carbonyl)-1-oxa-4,9-diazaspiro[5.5]undecan-9-yl)ethoxy)benzylamino)ethyl)benzo[d]thiazol-2(3H)-one formate] | 20 nM | 63.1 nM | 0.8 |
| Cc1nc(C(=O)N2CCOC3(CCN(Cc4ccc(CCNC[C@H](O)c5ccc(O)c6[nH]c(=O)sc56)cc4)CC3)C2)cs1 [Example 16, (R)-4-Hydroxy-7-(1-hydroxy-2-(4-((4-(2-methylthiazole-4-carbonyl)-1-oxa-4,9-diazaspiro[5.5]undecan-9-yl)methyl)phenethylamino)ethyl)benzo[d]thiazol-2(3H)-one ditrifluoroacetate] | 7.94 nM | 15.8 nM | 0.9 |
| O=C(c1csc(C2CCCC2)n1)N1CCOC2(CCN(Cc3cc(F)cc(CCNC[C@H](O)c4ccc(O)c5[nH]c(=O)sc45)c3)CC2)C1 [Example 59, (R)-7-(2-(3-((4-(2-Cyclopentylthiazole-4-carbonyl)-1-oxa-4,9-diazaspiro[5.5]undecan-9-yl)methyl)-5-fluorophenethylamino)-1-hydroxyethyl)-4-hydroxybenzo[d]thiazol-2(3H)-one ditrifluoroacetate] | 7.94 nM | 15.8 nM | 1 |
| O=C(c1csc(C(F)(F)F)n1)N1CCOC2(CCN(Cc3cccc(CCNC[C@H](O)c4ccc(O)c5[nH]c(=O)sc45)c3)CC2)C1 [Example 26, (R)-4-Hydroxy-7-(1-hydroxy-2-(3-((4-(2-(trifluoromethyl)thiazole-4-carbonyl)-1-oxa-4,9-diazaspiro[5.5]undecan-9-yl)methyl)phenethylamino)ethyl)benzo[d]thiazol-2(3H)-one ditrifluoroacetate] | 0.631 nM | 12.6 nM | 0.8 |
| O=C(c1csc(-c2ccccc2)n1)N1CCOC2(CCN(CCCCCCCCCNC[C@H](O)c3ccc(O)c4[nH]c(=O)sc34)CC2)C1 [Example 113, (R)-4-Hydroxy-7-(1-hydroxy-2-(9-(4-(2-phenylthiazole-4-carbonyl)-1-oxa-4,9-diazaspiro[5.5]undecan-9-yl)nonylamino)ethyl)benzo[d]thiazol-2(3H)-one formate] | 20 nM | 20 nM | 0.8 |
| Cc1nc(C(=O)N2CCOC3(CCN(CCOc4cccc(CNC[C@H](O)c5ccc(O)c6[nH]c(=O)sc56)c4)CC3)C2)cs1 [Example 10, (R)-4-Hydroxy-7-(1-hydroxy-2-(3-(2-(4-(2-methylthiazole-4-carbonyl)-1-oxa-4,9-diazaspiro[5.5]undecan-9-yl)ethoxy)benzylamino)ethyl)benzo[d]thiazol-2(3H)-one ditrifluoroacetate] | 5.01 nM | 316 nM | 0.9 |
| Cc1nc(C(=O)N2CCOC3(CCN(CCOc4cccc(CNC[C@H](O)c5ccc(O)c6[nH]c(=O)ccc56)c4)CC3)C2)cs1 [Example 94, (R)-8-Hydroxy-5-(1-hydroxy-2-(3-(2-(4-(2-methylthiazole-4-carbonyl)-1-oxa-4,9-diazaspiro[5.5]undecan-9-yl)ethoxy)benzylamino)ethyl)quinolin-2(1H)-one ditrifluoroacetate] | 12.6 nM | 1260 nM | 0.7 |
| Cc1nc(C(=O)N2CCOC3(CCN(Cc4cccc(CCNC[C@H](O)c5ccc(O)c6[nH]c(=O)sc56)c4)CC3)CC2)cs1 [Example 89, (R)-4-Hydroxy-7-(1-hydroxy-2-(3-((10-(2-methylthiazole-4-carbonyl)-7-oxa-3,10-diazaspiro[5.6]dodecan-3-yl)methyl)phenethylamino)ethyl)benzo[d]thiazol-2(3H)-one ditrifluoroacetate] | 31.6 nM | 1.58 nM | 1 |
| CCc1cc(C(=O)N2CCOC3(CCN(Cc4ccc(F)c(CCNC[C@H](O)c5ccc(O)c6[nH]c(=O)sc56)c4)CC3)C2)cs1 [Example 99, (R)-7-(2-(5-((4-(5-Ethylthiophene-3-carbonyl)-1-oxa-4,9-diazaspiro[5.5]undecan-9-yl)methyl)-2-fluorophenethylamino)-1-hydroxyethyl)-4-hydroxybenzo[d]thiazol-2(3H)-one ditrifluoroacetate] | 1.58 nM | 7.94 nM | 0.8 |
| CC(C)c1nc(C(=O)N2CCOC3(CCN(Cc4cccc(CCNC[C@H](O)c5ccc(O)c6[nH]c(=O)ccc56)c4)CC3)C2)cs1 [Example 23, (R)-8-Hydroxy-5-(1-hydroxy-2-(3-((4-(2-isopropylthiazole-4-carbonyl)-1-oxa-4,9-diazaspiro[5.5]undecan-9-yl)methyl)phenethylamino)ethyl)quinolin-2(1H)-one ditrifluoroacetate] | 0.251 nM | 15.8 nM | 0.9 |
